Results on 24 compounds are retold here after patent US9006252B2, “Fused multicyclic compounds as protein kinase inhibitors” (National Health Research Institutes, priority 2008, dated 2015).

Where “and” joins values, the source holds several entries; their conditions need not be identical. Identical values can stand only once. Bounds are passed on as bounds.

The first test deals with T1, Aurora A (Homo sapiens, UniProt O14965).
T1 construct: GST-tAurora A (123-401aa) fusion protein obtained above; made in house; host or cells: Sf9 insect cells (baculovirus, pBacPAK8)
T1 sequence (O14965 123-401): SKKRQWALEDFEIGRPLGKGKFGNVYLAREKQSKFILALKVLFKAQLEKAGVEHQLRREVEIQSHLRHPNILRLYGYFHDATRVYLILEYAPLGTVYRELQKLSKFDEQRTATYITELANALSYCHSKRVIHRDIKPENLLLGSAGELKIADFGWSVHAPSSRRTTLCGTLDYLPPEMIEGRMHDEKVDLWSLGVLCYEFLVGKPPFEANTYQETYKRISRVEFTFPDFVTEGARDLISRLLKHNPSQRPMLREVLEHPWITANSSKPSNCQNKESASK
Briefly: Aurora Kinase A luminescent kinase assay (Kinase-Glo). The settings on record: IC50 values (concentration of a test compound at which activity of 50% of Aurora A is inhibited), GST-tAurora A (123-401aa) fusion protein. The format is biochemical. The method, then:
The Aurora A catalytic domain with an N-terminal GST tag was constructed in pBacPAK8 plasmid and expressed in sf9 cells. […] To concentrate GST-tAurora A, buffer was replaced with Tris buffer (100 mM Tris (pH 7.5), 300 mM NaCl, 1 mM EDTA, 4 mM DTT) using Amicon ultra-15 (MWCO:30K, Millipore) to 2.4 mg/ml. After the addition of equal volume of glycerol and 0.04% Triton X-100, the proteins were stored aliquoted at −80° C.
Briefly, a test compound, enzyme, substrate-tetra(LRRWSLG), DTT and ATP were dissolved in Aur buffer (50 mM Tris-HCl pH 7.4, 10 mM NaCl, 10 mM MgCl2, and 100 μg/ml BSA) individually before the assay. […] 5 μM ATP (5 μl), 1 mM DTT (5 μl) and 0.1 mM tetra(LRRWSLG) peptide substrate (5 μl) were added into the reactions of test compounds and GST-tAurora A. The reactions were incubated at 37° C. for 90 min. 50 μl of Kinase-Glo Plus Reagent (V3771, Promega) was added into the reactions, followed by the incubation at 25° C. for 20 min.
In general terms: Kinase-Glo reads ATP consumption through a luciferase reaction.
By IC50 is commonly meant the midpoint of a concentration-inhibition curve. As for `O=C(Nc1ccccc1)Nc1ccc(CCNc2ncnc3cc(N4CCOCC4)ccc23)cc1` [Compound 251], the IC50 is 1 to 50 nM and < 1000 nM. For `O=C(Nc1ccccc1)Nc1ccc(CCNc2ncnc3oc(-c4ccccc4)nc23)cc1` [Compound 7, 1-Phenyl-3-{4-[2-(2-phenyl-oxazolo[5,4-d]pyrimidin-7-ylamino)-ethyl]-phenyl}-urea], the IC50 was < 1000 nM and 51 to 450 nM. The same measure, in the same setting: in the case of `O=C(Nc1cccc(F)c1)Nc1ncc(CCNc2ncnc3oc(-c4ccccc4)nc23)s1` [Compound 241] it was 51 to 450 nM and < 1000 nM. With `COc1cc2ncnc(NCCc3ccc(NC(=O)Nc4ccc(F)cc4)cc3)c2cc1OC` [Compound 211], the IC50 was 1 to 50 nM and < 1000 nM. The same measure, in the same setting: the value for `COc1ccc2c(NCCc3ccc(NC(=O)Nc4ccccc4)cc3)c(C#N)cnc2c1` [Compound 212] was 51 to 450 nM and < 1000 nM; that for `O=C(Nc1ccccc1)Nc1ccc(CCNc2ncnc3ccccc23)cc1` [Compound 249] was 1 to 50 nM and < 1000 nM; that for `COc1cc2ncnc(NCCc3ccc(NC(=O)Nc4cc(F)cc(F)c4)cc3)c2cc1OC` [Compound 245] was 1 to 50 nM and < 1000 nM. On the same count and under the same terms, the value for `CCN(CCO)CCCOc1ccc2c(NCCc3ccc(NC(=O)Nc4ccccc4)cc3)ncnc2c1` [Compound 203] was 51 to 450 nM and < 1000 nM; that for `CN(C)Cc1ccccc1NC(=O)Nc1ccc(CCNc2ncnc3oc(-c4ccccc4)nc23)cc1` [Compound 72] was < 1000 nM and 51 to 450 nM. On the same count and under the same terms, in the case of `COc1cc2ncnc(NCCc3ccc(NC(=O)Nc4ccccc4)cc3)c2cc1OC` [Compound 201] it was 1 to 50 nM and < 1000 nM; in that of `COc1cc2ncnc(NCCc3ccc(NC(=O)NC4CC4)cc3)c2cc1OC` [Compound 230], under 1000 nM; in that of `O=C(Nc1cccc(Cl)c1)Nc1ncc(CCNc2ncnc3oc(-c4ccccc4)nc23)s1` [Compound 242], 51 to 450 nM and < 1000 nM. Consider `CCN(CCO)CCCOc1ccc2c(NCCc3ccc(NC(=O)Nc4cccc(F)c4)cc3)ncnc2c1` [Compound 209], for which the IC50 was 1 to 50 nM and < 1000 nM. On the same count and under the same terms, in the case of `COc1cc2ncc(C#N)c(NCCc3ccc(NC(=O)Nc4ccccc4)cc3)c2cc1OC` [Compound 140] it was < 1000 nM and 51 to 450 nM; in that of `CN(C)CCCOc1ccc2c(NCCc3ccc(NC(=O)Nc4cccc(F)c4)cc3)ncnc2c1` [Compound 208], < 1000 nM and 51 to 450 nM; in that of `COc1cc2ncc(C#N)c(NCCc3ccc(NC(=O)NC4CC4)cc3)c2cc1OC` [Compound 226], 51 to 450 nM and < 1000 nM. Same read-out and setting: in the case of `COc1cc2ncc(C#N)c(NCCc3cnc(NC(=O)Nc4ccccc4)s3)c2cc1OC` [Compound 227] it was 51 to 450 nM and < 1000 nM; in that of `O=C(Nc1ccccc1)Nc1ccc(CCNc2ncnc3oc(-c4ccncc4)nc23)cc1` [Compound 235], 1 to 50 nM and < 1000 nM. Still for that read-out and setting: the value for `CN(C)CCCOc1ccc2c(NCCc3ccc(NC(=O)Nc4ccccc4)cc3)ncnc2c1` [Compound 202] was 51 to 450 nM and < 1000 nM; that for `O=C(Nc1ccccc1)Nc1ccc(CCNc2ncnc3cc(OCCCCl)ccc23)cc1` [Compound 6, 1-(4-{2-[7-(3-Chloro-propoxy)-quinazolin-4-ylamino]-ethyl}-phenyl)-3-phenyl-urea] was < 1000 nM and 51 to 450 nM; that for `O=C(Nc1ccccc1)Nc1ncc(CCNc2ncnc3oc(-c4ccccc4)nc23)s1` [Compound 81] was < 1000 nM and 51 to 450 nM.

For the compound `N#Cc1cnc2ccsc2c1NCCc1cnc(NC(=O)Nc2cccc(Cl)c2)s1` [Compound 190, 1-(3-chlorophenyl)-3-(5-(2-(6-cyanothieno[3,2-b]pyridin-7-ylamino)ethyl)thiazol-2-yl)urea], the IC50 was < 1000 nM and 51 to 450 nM.

Another test has as its system HCT-116 cells. As to the kind of experiment: HCT-116 cell viability, MTS assay. The format is cell-based. The conditions noted are these: Homo sapiens, HCT-116, 96 h, 96-h incubation, MTS; read-out: IC50 values, HCT-116 cell viability. The method, then:
HCT-116 cell viability was examined by the MTS assay (Promega, Madison, Wis., USA). 2000 HCT-116 cells in 100 μL McCoy's 5a medium were seeded in each well of a 96-well plate. After 96-h incubation with a test compound, the cells were incubated with 20 μL of a MTS/PMS mixture (MTS/PMS ratio: 20:1) for 2 h at 37° C. in a humidified incubator with 5% CO2 to allow viable cells to convert the tetrazolium salt (MTS) into formazan. The amount/concentration of formazan, which indicates the number of live cells, was determined by measuring the absorbance at 490 nm using a PerkinElmer Victor2 plate reader (PerkinElmer, Shelton, Conn., USA).
A general note: Tetrazolium assays rely on reduction of a dye to a coloured formazan, in cell work by metabolically active cells.
Consider `O=C(Nc1ccccc1)Nc1ccc(CCNc2ncnc3cc(N4CCOCC4)ccc23)cc1` [Compound 251], for which the IC50 is under 100 nM. The same measure, in the same setting: in the case of `O=C(Nc1ccccc1)Nc1ccc(CCNc2ncnc3oc(-c4ccccc4)nc23)cc1` [Compound 7, 1-Phenyl-3-{4-[2-(2-phenyl-oxazolo[5,4-d]pyrimidin-7-ylamino)-ethyl]-phenyl}-urea] it was 101 to 850 nM.

As for `COc1ccc2c(NCCc3ccc(NC(=O)Nc4cccc(Cl)c4)cc3)c(C#N)cnc2c1` [Compound 213], the IC50 fell in the range of 101 to 850 nM. The same measure, in the same setting: in the case of `COc1ccc2c(NCCc3ccc(NC(=O)Nc4ccccc4)cc3)c(C#N)cnc2c1` [Compound 212] it was 101 to 850 nM; in that of `N#Cc1cnc2cc(O)ccc2c1NCCc1ccc(NC(=O)Nc2ccccc2)cc1` [Compound 229], 101 to 850 nM.
